Measured values taken from article PMC6027146, “Synthesis and Structure-Activity Relationships of (−)-cis-N-Normetazocine-Based LP1 Derivatives” (Pharmaceuticals, 2018).
Entries after “also recorded” stand apart in the source; their conditions may differ. Like-named read-outs stand apart in the source and are kept apart here.

Key:
[1] = molecular target: T1, rat-MOR (Rattus norvegicus, UniProt P33535); experiment: Radioligand competition binding, [3H]-DPN, HEK293 membranes, MOR
T1 construct: expressed in transfected cells
Protocol: (§1) All synthesized compounds were tested in vitro by radioligand competition binding using [^3H]-diprenorphine ([^3H]-DPN) to measure the affinity for opioid receptor subtypes in membranes from HEK293 cells stably expressing either MOR, DOR, or KOR, as previously described.
(§2) Confluent monolayers of HEK293 (human embryonic kidney 293) cells stably expressing rat-MOR, rat-DOR, or human-KOR were harvested, collected by centrifugation at 1500 rpm for 5 min, and washed once with phosphate-buffered saline (PBS) at pH 7.5. Membranes from cell pellets were carried out as described by Georgoussi and Zioudrou (1993) and Papakonstantinou et al. (2015). Briefly, cell pellets were resuspended in ice-cold membrane buffer (10 mM Tris-HCl, pH 7.5 and 0.1 mM EDTA), homogenized, and centrifuged at 2,000 g for 3 min at 4 °C. Supernatants were further centrifuged at 45,000 rpm for 30 min at 4 °C. The membrane pellet was resuspended in ice-cold membrane buffer at a protein concentration of approximately 1 mg/mL and stored in aliquots at −70 °C. Protein concentration was determined according to Bradford assay.
(§3) In the experiments designed to define compound affinity and selectivity for MOR, DOR, and KOR, membranes expressing each of these opioid receptors ([…]) were incubated at 30 °C for 45 min in buffer containing 50 mM Tris-HCl, pH 7.5, 100 mM NaCl, and 10 mM MgCl2 as described by Georgoussi et al. […] The ability of compounds 10–16 to displace [^3H]-DPN (3.75 nM) binding to the opioid receptors was assessed as described by Morou And Georgoussi (2005). Non-specific binding was measured in the presence of […] Naloxone. The reaction was stopped by rapid filtration and three washes in ice-cold 50 mM Tris-HCl, pH 7.4, through GF/C filters (Whatman, Maidstone, UK) using an automated cell harvester (Brandel Inc., Gaithersburg, MD, USA). The radioactivity was measured by liquid scintillation counting (Liquid Scintillation Analyzer, Packard).
(§4) Analysis of the binding data was performed using the Origin 7.5 software (OriginLab Corporation, Northampton, MA, USA). In calcium mobilization experiments, data were analyzed by non-linear curve fitting equation, using GraphPad 5.0 software. […] Ligand efficacy was expressed as intrinsic activity (α), calculated as the ratio between the Emax of the ligand and that of the respective standards. Calcium mobilization data were expressed as FIU (fluorescence intensity units) in percent, over the baseline. Agonist potencies are given as pEC50 (the negative logarithm to base 10 of the molar concentration of an agonist that produces 50% of the maximal possible effect, Emax). Concentration response curves to agonists were fitted with the following equation: Effect = baseline + (Emax − baseline)/(1+10^(LogEC50 − X) ∗ HillSlope) where X is the agonist concentration.

[2] = molecular target: T2, rat-DOR (Rattus norvegicus, UniProt P33533); experiment: Radioligand competition binding, [3H]-DPN, HEK293 membranes, DOR
T2 construct: expressed in transfected cells
Protocol: as §1, §2, §3, §4

[3] = molecular target: T3, recombinant human MOR (Homo sapiens, UniProt P35372); experiment: Calcium mobilization assay, CHO-MOR cells expressing Gαqi5; type: cell-based; conditions: for functional profile at MOR: calcium mobilization; for intrinsic activity (α) at MOR: ratio of Emax of ligand to that of the standard; for MOR pEC50 (CL95%): agonist mode, Inactive = inactive at 10 μM, crc incomplete = incomplete concentration response curve at 10 μM
T3 construct: expressed in transfected cells; gift of Dr. Larry Toll (SRI International); infected with a retrovirus for Gαqi5

[4] = molecular target: T4, recombinant human DOR (Homo sapiens, UniProt P41143); experiment: Calcium mobilization assay, CHO-DOR cells expressing GαqG66Di5; type: cell-based; conditions: for DOR pEC50 (CL95%): agonist mode, crc incomplete = incomplete concentration response curve at 10 μM; for DOR pEC50 (CL95%) / DOR pKB (CL95%): Inactive = inactive at 10 μM; for DOR pKB (CL95%): antagonist mode, DPDPE as agonist; for functional profile at DOR: calcium mobilization
T4 construct: expressed in transfected cells; supplied by Dr. Eva Varga (University of Arizona); infected with a retrovirus for GαqG66Di5
Protocol: (§5) The pharmacological characterization of LP1 derivatives 2 and 10–16 was performed by calcium mobilization assay (Table 2). This procedure was preliminarily validated through a series of experiments where the effects of DPDPE, dermorphin, and dynorphin A were assessed in CHO cells expressing the human recombinant opioid receptors and Gαqi5 or GαqG66Di5 chimeric proteins.
(§6) Chinese hamster ovary (CHO) cells expressing the recombinant human MOR and KOR (CHO^MOR and CHO^KOR) were kindly provided by Dr. Larry Toll (SRI International, Menlo Park, CA, USA), and CHO cells expressing the recombinant human DOR (CHO^DOR) were supplied by Dr. Eva Varga (Department of Medical Pharmacology, The University of Arizona, Tucson, AZ, USA). CHO cells lines permanently coexpressing the opioid receptors and the C-terminally modified Gαqi5 were prepared by infecting the CHO lines described above with a recombinant retrovirus expressing the chimeric α subunit and the hygromycin resistance gene. Similarly, CHO cells lines permanently coexpressing DOR and the C-terminally modified GαqG66Di5 were prepared by infecting the CHO lines described above with a recombinant retrovirus expressing the chimeric α subunit and the hygromycin resistance gene. Polyclonal cell lines were generated using the pantropic retroviral expression system form BD-Clontech, as described previously. Stable lines were selected under hygromycin B (100 μg/mL) and geneticin (600 μg/mL) for 2–3 weeks after the infection.
(§7) CHO cells, expressing human opioid receptors and the Gαqi5 protein, and CHODOR, expressing the GαqG66Di5 protein, were maintained in culture medium consisting of Dulbecco minimum essential medium (DMEM) and Ham F-12 (1:1) (50/50) supplemented with 10% fetal calf serum (FCS), L-glutamine (2 mM), geneticin (200 μg/mL; G418), hygromycin B (100 μg/mL) at 37 °C in 5% CO2 humidified air. When confluence was reached (3–4 days), cells were subcultured as required using trypsin/EDTA, and used for experimentation. The different cell lines were seeded at a density of […] into black 96-well, clear-bottomed plates. After 24 h incubation, the cells were loaded with medium supplemented with 2.5 mM probenecid, 3 μM of the calcium sensitive fluorescent dye Fluo-4 AM, and 0.01% pluronic acid, for 30 min at 37 °C. Afterwards, the loading solution was aspirated and 100 μL/well of assay buffer—HBSS supplemented with 20 mM HEPES, 2.5 mM probenecid and 500 μM Brilliant Black (Aldrich, St. Louis, MO, USA)—was added. Serial dilutions of ligands for experimental use were made in HBSS/HEPES (20 mM) buffer (containing 0.005% BSA fraction V). After placing both plates (cell culture and compound plate) into the FlexStation II (Molecular Device, Union City, San Jose, CA 94587, USA), fluorescence changes were measured at room temperature. Online additions were carried out in a volume of 50 μL/well. Antagonists were incubated 15 min before the addition of the agonist. Maximum change in fluorescence, expressed in percent of baseline fluorescence, was used to determine agonist response.
as §4, with “concentration. […]” for “concentration.”

[5] = molecular target: T5, human-KOR (Homo sapiens, UniProt P41145); experiment: Radioligand competition binding, [3H]-DPN, HEK293 membranes, KOR; parameters: expressed in transfected cells
Protocol: as §1, §2, §3, §4

[6] = molecular target: T5, human-KOR; experiment: Calcium mobilization assay, CHO-KOR cells expressing Gαqi5; type: cell-based; parameters: expressed in transfected cells; gift of Dr. Larry Toll (SRI International); infected with a retrovirus for Gαqi5; conditions: for KOR pEC50 (CL95%): agonist mode, crc incomplete = incomplete concentration response curve at 10 μM; for KOR pEC50 (CL95%) / KOR pKB (CL95%): Inactive = inactive at 10 μM; for KOR pKB (CL95%): antagonist mode, dynorphin A as agonist; for functional profile at KOR: calcium mobilization
Protocol: as §5, §6, §7
as §4, with “concentration. […]” for “concentration.”

Compound	Ki [1] [µM]	Ki [2] [nM]	EC50 [3] [nM]	functional profile at MOR [3]	intrinsic activity (α) at MOR [3]	DOR pEC50 (CL95%) [4]	DOR pKB (CL95%) [4]	Ki [5] [µM]	KOR pEC50 (CL95%) [6]	Kb [4] [nM]	functional profile at DOR [4]	Kb [6] [nM]	KOR pKB (CL95%) [6]	functional profile at KOR [6]	Kb [3] [nM]	MOR pEC50 (CL95%) [3]	melting point	other results
C[C@H]1[C@H]2Cc3ccc(O)cc3[C@]1(C)CCN2CCC(=O)Nc1ccc(F)cc1 [Compound 10, N-(4-Fluorophenyl)-3-[(2R,6R,11R)-8-hydroxy-6,11-dimethyl-1,4,5,6-tetrahydro-2,6-methano-3-benzazocin-3(2H)-yl]propanamide]	0.28 ± 0.013	920 ± 120	2140	MOR partial agonists	0.30 ± 0.015	able to stimulate calcium mobilization, but only at the higher concentration tested; also recorded: crc incomplete	Inactive	4.8 ± 0.95	crc incomplete	–	–	–	–	–	–	–	–	–
Cc1ccc(NC(=O)CCN2CC[C@@]3(C)c4cc(O)ccc4C[C@@H]2[C@@H]3C)cc1 [Compound 11, 3-[(2R,6R,11R)-8-Hydroxy-6,11-dimethyl-1,4,5,6-tetrahydro-2,6-methano-3-benzazocin-3(2H)-yl]-N-(4-methylphenyl)propanamide]	0.24 ± 0.015	410 ± 23	1410	MOR partial agonists	0.23 ± 0.011	Inactive	–	1.01 ± 0.11	Inactive	1480	DOR/KOR antagonists	1410	able to inhibit the stimulatory effects induced by dynorphin A	DOR/KOR antagonists	–	–	–	–
C[C@H]1[C@H]2Cc3ccc(O)cc3[C@]1(C)CCN2CCC(=O)Nc1ccc(C#N)cc1 [Compound 12, N-(4-Cyanophenyl)-3-[(2R,6R,11R)-8-hydroxy-6,11-dimethyl-1,4,5,6-tetrahydro-2,6-methano-3-benzazocin-3(2H)-yl]propanamide]	0.21 ± 0.024	380 ± 34	1020	MOR partial agonists	0.34 ± 0.017	Inactive	–	0.85 ± 0.18	Inactive	1510	DOR/KOR antagonists	1260	able to inhibit the stimulatory effects induced by dynorphin A	DOR/KOR antagonists	–	–	–	–
COc1ccc(NC(=O)CCN2CC[C@@]3(C)c4cc(O)ccc4C[C@@H]2[C@@H]3C)cc1 [Compound 13, 3-[(2R,6R,11R)-8-Hydroxy-6,11-dimethyl-1,4,5,6-tetrahydro-2,6-methano-3-benzazocin-3(2H)-yl]-N-(4-methoxyphenyl)propanamide]	0.18 ± 0.011	1100 ± 110	–	–	–	Inactive	Inactive	4 ± 0.18	Inactive	–	–	–	Inactive	–	501	Inactive	172.9 to 173.5 °C	–
C[C@H]1[C@H]2Cc3ccc(O)cc3[C@]1(C)CCN2CCC(=O)N1CCCc2ccccc21 [Compound 15, 1-(3,4-Dihydroquinolin-1(2H)-yl)-3-[(2R,6R,11R)-8-hydroxy-6,11-dimethyl-1,4,5,6-tetrahydro-2,6-methano-3-benzazocin-3(2H)-yl]-propan-1-one]	–	–	–	–	–	Inactive	Inactive	–	–	–	–	–	–	partial agonist of KOR	–	Inactive	92.2 °C (dec.)	Ki ([1]; [3H]-DPN displacement, means ± SEM of three experiments in duplicate, read-out: Ki (μM) ± SEM MOR): 0.36 ± 0.023 µM; Ki ([5]; [3H]-DPN displacement, means ± SEM of three experiments in duplicate, read-out: Ki (μM) ± SEM KOR): 0.2 ± 0.02 µM; intrinsic activity (α) at KOR ([6]; ratio of Emax of ligand to that of the standard): 0.32 ± 0.016; EC50 ([6]; read-out: KOR pEC50 (CL95%) (converted)): 257 nM
C[C@H]1[C@H]2Cc3ccc(O)cc3[C@]1(C)CCN2CCC(=O)N(c1ccccc1)c1ccccc1 [Compound 16, 3-[(2R,6R,11R)-8-Hydroxy-6,11-dimethyl-1,4,5,6-tetrahydro-2,6-methano-3-benzazocin-3(2H)-yl]-N,N-diphenylpropanamide]	0.17 ± 0.013	–	–	MOR/KOR antagonist	–	Inactive	Inactive	0.2 ± 0.03	Inactive	–	–	776	able to inhibit the stimulatory effects induced by dynorphin A	MOR/KOR antagonist	759	Inactive	173.5 °C (dec.)	–
